From ChEMBL document CHEMBL1155131, “Discovery of conformationally rigid 3-azabicyclo[3.1.0]hexane-derived dipeptidyl peptidase-IV inhibitors” (Bioorg Med Chem Lett, 2008) come the findings set out here.

Test [1] deals with Dipeptidyl peptidase 4 (Homo sapiens, UniProt P27487). Kind of test: Inhibition of human plasma DPP4. The test is classed as cell-free.
Test [2] addresses Dipeptidyl peptidase 2 (Homo sapiens, UniProt Q9UHL4). In words: Inhibition of DPP2.
Test [3] addresses T1, Prolyl endopeptidase (Homo sapiens, UniProt P48147).
T1 sequence (P48147 whole entry): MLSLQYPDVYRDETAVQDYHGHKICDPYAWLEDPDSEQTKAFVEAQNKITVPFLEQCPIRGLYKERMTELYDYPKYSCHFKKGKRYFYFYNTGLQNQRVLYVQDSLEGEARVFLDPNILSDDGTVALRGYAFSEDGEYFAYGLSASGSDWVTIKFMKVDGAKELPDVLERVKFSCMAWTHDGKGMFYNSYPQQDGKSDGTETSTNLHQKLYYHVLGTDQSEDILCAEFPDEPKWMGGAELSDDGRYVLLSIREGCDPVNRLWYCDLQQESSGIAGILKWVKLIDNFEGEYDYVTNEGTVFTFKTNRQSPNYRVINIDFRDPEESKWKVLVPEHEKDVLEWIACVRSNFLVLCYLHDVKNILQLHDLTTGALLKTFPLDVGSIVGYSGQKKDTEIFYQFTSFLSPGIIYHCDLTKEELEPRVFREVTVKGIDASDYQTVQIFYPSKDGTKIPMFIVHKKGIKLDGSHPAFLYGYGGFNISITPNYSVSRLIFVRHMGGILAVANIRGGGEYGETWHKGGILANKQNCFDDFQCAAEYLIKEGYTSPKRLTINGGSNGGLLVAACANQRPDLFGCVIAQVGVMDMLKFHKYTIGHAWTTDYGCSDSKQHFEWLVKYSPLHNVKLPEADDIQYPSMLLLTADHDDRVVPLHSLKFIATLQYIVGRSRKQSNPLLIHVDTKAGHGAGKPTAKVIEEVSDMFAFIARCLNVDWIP
Kind of test: Inhibition of PPCE.

Test [4] addresses Dipeptidyl peptidase 8 (Homo sapiens, UniProt Q6V1X1). Kind of test: Inhibition of DPP8.
Test [5] in a line: Antiproliferative activity against T cells. As to conditions: T-cell.
In test [6] the target is Dipeptidyl peptidase 9 (Homo sapiens, UniProt Q86TI2). Kind of test: Inhibition of DPP9.
Dipeptidyl peptidase 9, sequence (Q86TI2 whole entry): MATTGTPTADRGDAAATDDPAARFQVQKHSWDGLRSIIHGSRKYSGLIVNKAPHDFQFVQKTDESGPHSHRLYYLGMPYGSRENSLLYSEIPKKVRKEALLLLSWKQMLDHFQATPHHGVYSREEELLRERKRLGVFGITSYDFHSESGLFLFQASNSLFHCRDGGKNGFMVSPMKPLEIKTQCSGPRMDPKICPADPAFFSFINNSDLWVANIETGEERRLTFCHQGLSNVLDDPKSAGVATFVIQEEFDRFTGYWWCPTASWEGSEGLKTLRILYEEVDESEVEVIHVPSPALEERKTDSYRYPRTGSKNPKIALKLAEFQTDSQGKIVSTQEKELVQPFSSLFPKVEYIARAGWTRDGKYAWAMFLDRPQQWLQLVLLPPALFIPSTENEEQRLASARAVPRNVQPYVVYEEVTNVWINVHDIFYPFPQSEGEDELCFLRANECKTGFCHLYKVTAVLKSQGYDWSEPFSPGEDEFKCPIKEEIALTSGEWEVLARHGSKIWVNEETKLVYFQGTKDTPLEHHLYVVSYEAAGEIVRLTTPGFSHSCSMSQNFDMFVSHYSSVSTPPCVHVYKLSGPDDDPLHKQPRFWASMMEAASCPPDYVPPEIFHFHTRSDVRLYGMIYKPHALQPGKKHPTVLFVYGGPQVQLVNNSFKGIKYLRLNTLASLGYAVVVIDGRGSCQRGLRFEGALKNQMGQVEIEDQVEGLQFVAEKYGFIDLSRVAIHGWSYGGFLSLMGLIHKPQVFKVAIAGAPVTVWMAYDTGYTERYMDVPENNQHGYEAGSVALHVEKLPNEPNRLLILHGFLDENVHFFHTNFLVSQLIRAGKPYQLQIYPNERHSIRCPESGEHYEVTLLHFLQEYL

Dipeptidyl peptidase 8, sequence (Q6V1X1 whole entry): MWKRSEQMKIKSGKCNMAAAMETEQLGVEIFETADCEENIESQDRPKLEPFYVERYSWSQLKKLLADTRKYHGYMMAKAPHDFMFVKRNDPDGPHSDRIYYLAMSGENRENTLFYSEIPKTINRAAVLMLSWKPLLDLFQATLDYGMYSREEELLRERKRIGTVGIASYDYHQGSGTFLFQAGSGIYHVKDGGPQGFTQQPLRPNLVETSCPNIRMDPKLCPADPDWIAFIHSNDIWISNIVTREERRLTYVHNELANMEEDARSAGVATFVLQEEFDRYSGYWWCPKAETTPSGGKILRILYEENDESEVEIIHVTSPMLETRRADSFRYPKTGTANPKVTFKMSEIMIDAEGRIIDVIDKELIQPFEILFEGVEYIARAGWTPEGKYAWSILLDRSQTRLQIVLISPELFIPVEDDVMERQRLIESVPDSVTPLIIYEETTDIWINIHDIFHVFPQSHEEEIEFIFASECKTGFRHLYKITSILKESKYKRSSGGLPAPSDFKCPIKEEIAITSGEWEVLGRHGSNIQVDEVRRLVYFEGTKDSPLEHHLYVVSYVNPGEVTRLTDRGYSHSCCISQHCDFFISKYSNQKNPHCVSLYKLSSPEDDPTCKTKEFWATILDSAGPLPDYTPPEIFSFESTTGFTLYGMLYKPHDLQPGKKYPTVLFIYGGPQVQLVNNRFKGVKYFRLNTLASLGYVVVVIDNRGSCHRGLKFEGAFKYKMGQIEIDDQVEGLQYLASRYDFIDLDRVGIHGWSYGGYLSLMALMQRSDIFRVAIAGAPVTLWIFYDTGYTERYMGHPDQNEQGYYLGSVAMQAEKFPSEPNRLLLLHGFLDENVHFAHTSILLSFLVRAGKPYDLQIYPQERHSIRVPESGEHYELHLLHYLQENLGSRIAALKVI
Dipeptidyl peptidase 4, sequence (P27487 whole entry): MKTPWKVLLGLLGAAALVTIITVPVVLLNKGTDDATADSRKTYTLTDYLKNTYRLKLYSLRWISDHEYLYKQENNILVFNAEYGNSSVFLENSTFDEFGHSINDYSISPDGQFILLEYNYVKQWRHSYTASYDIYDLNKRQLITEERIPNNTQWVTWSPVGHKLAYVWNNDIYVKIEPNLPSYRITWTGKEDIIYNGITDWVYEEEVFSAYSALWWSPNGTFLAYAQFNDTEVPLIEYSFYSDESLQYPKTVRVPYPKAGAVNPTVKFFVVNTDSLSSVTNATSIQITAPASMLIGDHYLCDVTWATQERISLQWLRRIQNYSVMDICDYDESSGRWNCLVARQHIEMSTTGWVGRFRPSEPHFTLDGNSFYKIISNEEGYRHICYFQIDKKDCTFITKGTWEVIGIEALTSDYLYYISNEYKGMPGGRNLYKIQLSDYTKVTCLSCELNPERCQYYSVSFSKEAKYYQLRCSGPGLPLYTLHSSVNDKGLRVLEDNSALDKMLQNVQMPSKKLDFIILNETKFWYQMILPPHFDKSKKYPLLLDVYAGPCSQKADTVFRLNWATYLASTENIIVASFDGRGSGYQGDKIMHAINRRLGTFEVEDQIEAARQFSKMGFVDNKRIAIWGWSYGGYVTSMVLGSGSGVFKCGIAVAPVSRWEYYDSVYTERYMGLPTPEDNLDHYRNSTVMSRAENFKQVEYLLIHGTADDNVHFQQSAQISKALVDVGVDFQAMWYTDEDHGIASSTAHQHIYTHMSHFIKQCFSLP

For orientation: IC50 means the concentration at which inhibition is half-maximal. A lower IC50 goes with greater potency. In turn, `N#Cc1ccc(N2C[C@@H]3[C@H](C2)[C@H]3NCC(=O)N2CCSC2)nc1` yielded an IC50 in test [1] of over 10 µM.
`N#C[C@@H]1C[C@H](F)CN1C(=O)CN[C@H]1[C@@H]2CN(c3ccc(C(F)(F)F)cn3)C[C@@H]21`: the results for the IC50 in test [2] and in test [3] were 4 µM and over 100 µM, respectively.
Consider `CCOC(=O)c1ccc(N2C[C@@H]3[C@H](C2)[C@H]3NCC(=O)N2C[C@@H](F)C[C@H]2C#N)cc1`, for which the IC50 in test [2] is 9.88 µM.
With `N#C[C@@H]1C[C@H](F)CN1C(=O)CN[C@H]1[C@@H]2CN(c3nc4ccccc4s3)C[C@@H]21`, the IC50 is 5.1 µM in test [2] and over 10 µM in test [3].
For `N#C[C@@H]1C[C@H](F)CN1C(=O)CN[C@H]1[C@@H]2CN(c3nccs3)C[C@@H]21`, the results for the IC50 in test [2] and in test [3] were 11 µM and over 100 µM, respectively.
In turn, `N#Cc1ccc(N2C[C@@H]3[C@H](C2)[C@H]3NCC(=O)N2CC(F)(F)C[C@H]2C#N)nc1` gave an IC50 in test [2] of 2.8 µM.
For the compound `N#C[C@@H]1C[C@H](F)CN1C(=O)CN[C@H]1[C@@H]2CN(c3cnc4ccccc4n3)C[C@@H]21`, the IC50 in test [2] is 0.226 µM; in test [3] it was over 10 µM.
Take `N#Cc1c(Cl)cccc1N1C[C@@H]2[C@H](C1)[C@H]2NCC(=O)N1C[C@@H](F)C[C@H]1C#N`: the results for the IC50 in test [4], in test [5] and in test [2] were over 10 µM, over 10 µM and 0.096 µM, respectively.
`N#Cc1ccc(N2C[C@@H]3[C@H](C2)[C@H]3NCC(=O)N2C[C@@H](F)C[C@H]2C#N)nc1`: the IC50 in test [2] was 11 µM; in test [3] it was over 100 µM.
With `N#Cc1cccnc1N1C[C@@H]2[C@H](C1)[C@H]2NCC(=O)N1C[C@@H](F)C[C@H]1C#N`, the figures for the IC50 in test [5] and in test [2] were over 10 µM and 1.34 µM, respectively.
On to `N#C[C@@H]1C[C@H](F)CN1C(=O)CN[C@H]1[C@@H]2CN(c3ncccn3)C[C@@H]21`, for which the IC50 in test [2] is 16.5 µM; in test [6], over 100 µM.
`N#Cc1ccc(N2C[C@@H]3[C@H](C2)[C@H]3NCC(=O)N2C[C@@H](F)C[C@H]2C#N)c(C(F)(F)F)c1`: the figures for the IC50 in test [2] and in test [3] were 1 µM and 2.1 µM, respectively.
The matching figures for `N#C[C@@H]1C[C@H](F)CN1C(=O)CN[C@H]1[C@@H]2CN(c3ncccc3[N+](=O)[O-])C[C@@H]21`: 6.42 µM and over 10 µM.
Consider `N#Cc1cc(C(F)(F)F)ccc1N1C[C@@H]2[C@H](C1)[C@H]2NCC(=O)N1C[C@@H](F)C[C@H]1C#N`, for which the IC50 in test [2] was 4.33 µM; in test [3], over 100 µM.
As to `N#C[C@@H]1C[C@H](F)CN1C(=O)CN[C@H]1[C@@H]2CN(c3ccccn3)C[C@@H]21`, the IC50 in test [5] is over 10 µM; in test [2] it was 10.8 µM; in test [3], 1.42 µM.
In test [2], `N#Cc1ccc(N2C[C@@H]3[C@H](C2)[C@H]3NCC(=O)N2C[C@@H](F)C[C@H]2C#N)cc1` came in with an IC50 of 18.1 µM.
In test [2], `N#Cc1ccc(N2C[C@@H]3[C@H](C2)[C@H]3NCC(=O)N2C[C@@H](F)C[C@H]2C#N)cc1Cl` came in with an IC50 of 0.907 µM.
In turn, `N#C[C@@H]1C[C@H](F)CN1C(=O)CN[C@H]1[C@@H]2CN(c3ccc(C(=O)NC4CC4)cc3)C[C@@H]21` yielded an IC50 in test [5] of over 10 µM.
`N#C[C@@H]1CCCN1C(=O)CNC12CC3CC(CC(O)(C3)C1)C2` [VILDAGLIPTIN]: the IC50 in test [5] is over 10 µM.
For `N#C[C@@H]1C[C@H](F)CN1C(=O)CN[C@H]1[C@@H]2CN(c3nc4ccccc4o3)C[C@@H]21`, the IC50 in test [2] is 5.1 µM; in test [3] it was over 100 µM.
In the same order, the values of `N#C[C@@H]1C[C@H](F)CN1C(=O)CN[C@H]1[C@@H]2CN(c3nccc(C(F)(F)F)n3)C[C@@H]21` are 2.2 µM and over 100 µM.
Regarding `N#C[C@@H]1C[C@H](F)CN1C(=O)CN[C@H]1[C@@H]2CN(c3ccc(C(N)=O)cc3)C[C@@H]21`, the IC50 in test [5] is over 10 µM; in test [2] it was 21.8 µM.
`N#Cc1c(F)cc(F)cc1N1C[C@@H]2[C@H](C1)[C@H]2NCC(=O)N1C[C@@H](F)C[C@H]1C#N`: the IC50 is 3.9 µM in test [2] and 8.7 µM in test [3].
On to `CNC(=O)c1ccc(N2C[C@@H]3[C@H](C2)[C@H]3NCC(=O)N2C[C@@H](F)C[C@H]2C#N)cc1`, for which the IC50 in test [5] is over 10 µM.
For `N#Cc1ccccc1N1C[C@@H]2[C@H](C1)[C@H]2NCC(=O)N1C[C@@H](F)C[C@H]1C#N`, the IC50 in test [2] was 0.406 µM; in test [3], over 10 µM.
In turn, `NCC[C@H](N)C(=O)N1CCCCC1` came in with an IC50 in test [2] of 0.163 µM.
With `N#Cc1cc(F)ccc1N1C[C@@H]2[C@H](C1)[C@H]2NCC(=O)N1C[C@@H](F)C[C@H]1C#N`, the IC50 in test [2] and in test [3] was over 10 µM each time.
Take `N#Cc1c(F)cc(N2C[C@@H]3[C@H](C2)[C@H]3NCC(=O)N2C[C@@H](F)C[C@H]2C#N)cc1F`: the IC50 is 10.9 µM in test [2] and 9.7 µM in test [3].
With `CC(=O)c1ccc(N2C[C@@H]3[C@H](C2)[C@H]3NCC(=O)N2C[C@@H](F)C[C@H]2C#N)cc1`, the IC50 in test [5] was over 10 µM; in test [2], 9 µM.
Consider `N#Cc1cc(F)cc(N2C[C@@H]3[C@H](C2)[C@H]3NCC(=O)N2C[C@@H](F)C[C@H]2C#N)c1`, for which the IC50 in test [2] worked out at 1.8 µM; in test [3], 9.15 µM.
In the case of `N#Cc1ccc(N2C[C@@H]3[C@H](C2)[C@H]3NCC(=O)N2C[C@@H](F)C[C@H]2C#N)cc1F`, the IC50 in test [5] is over 10 µM; in test [2], 1.2 µM; in test [3] it was 9.94 µM.
On to `N#Cc1cccc(F)c1N1C[C@@H]2[C@H](C1)[C@H]2NCC(=O)N1C[C@@H](F)C[C@H]1C#N`, for which the figures for the IC50 in test [2] and in test [3] were 1.3 µM and over 10 µM, respectively.
In the case of `N#Cc1ccc(N2C[C@@H]3[C@H](C2)[C@H]3NCC(=O)N2C[C@@H](F)C[C@H]2C#N)c(Cl)c1`, the IC50 in test [2] came out at 1 µM.
Regarding `N#Cc1ccc(N2C[C@@H]3[C@H](C2)[C@H]3NCC(=O)N2C[C@@H](F)C[C@H]2C#N)c(F)c1`, the IC50 in test [2] was 2.76 µM; in test [3], over 10 µM.
For `N#Cc1c(F)cccc1N1C[C@@H]2[C@H](C1)[C@H]2NCC(=O)N1C[C@@H](F)C[C@H]1C#N`, the IC50 in test [4], in test [2] and in test [3] was over 10 µM each time.
As to `N#Cc1c(N2C[C@@H]3[C@H](C2)[C@H]3NCC(=O)N2C[C@@H](F)C[C@H]2C#N)cccc1C(F)(F)F`, the IC50 in test [2] is 1.3 µM; in test [3], over 10 µM.
For the compound `N#C[C@@H]1C[C@H](F)CN1C(=O)CN[C@H]1[C@@H]2CN(c3ccc([N+](=O)[O-])cn3)C[C@@H]21`, the IC50 in test [2] turned out to be 13 µM; in test [3], 8.5 µM.
Consider `N#C[C@@H]1C[C@H](F)CN1C(=O)CN[C@H]1[C@@H]2CN(c3ccc(Cl)cn3)C[C@@H]21`, for which the results for the half-maximal inhibitory concentration (IC50) in test [5], in test [2] and in test [3] were over 10 µM, 8.75 µM and 9.04 µM, respectively.
`N[C@@H](CCCCNC(=O)OCc1ccc([N+](=O)[O-])cc1)C(=O)N1CCCC1` showed an IC50 in test [5] of 0.839 µM.
